US10975119B2, “Selective cysteine protease inhibitors and uses thereof” (Genesis Technologies Limited, priority 2011, dated 2021)
Where two headings read alike, the source gives them in different places.

Legend:
Type in all cases: biochemical
Caspase-3 = molecular target: T1, Caspase-3 (Homo sapiens, UniProt P42574); experiment: Caspase-3 inhibitor screening assay (BioVision kit, DEVD-AFC); settings: for inhibition at 10 µM: read-out: % Inhibition at 10 uM Casp3; for inhibition at 100 µM: read-out: % Inhibition at 100 uM Casp3
T1 construct: mixing the compounds with the respective active caspases; purchased BioVision K153-100
T1 sequence (P42574 29-175 limits assumed): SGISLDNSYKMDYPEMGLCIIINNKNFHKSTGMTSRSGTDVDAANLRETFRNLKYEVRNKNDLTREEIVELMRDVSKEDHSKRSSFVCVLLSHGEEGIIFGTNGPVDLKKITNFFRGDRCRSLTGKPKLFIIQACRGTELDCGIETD
T1 sequence (P42574 176-277 limits assumed): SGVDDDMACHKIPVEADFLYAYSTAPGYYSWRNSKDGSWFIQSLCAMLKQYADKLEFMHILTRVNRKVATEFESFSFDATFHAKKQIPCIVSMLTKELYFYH
How it was run: (§1)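 Each caspase cleaved its own AFC-labelled peptide substrate, and released AFC was read by fluorescence. % inhibition came from RFU against an uninhibited control.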

Caspase-4 = molecular target: T2, Caspase-4 (Homo sapiens, UniProt P49662); experiment: Caspase-4 inhibitor screening assay (BioVision kit, LEVD-AFC); settings: for inhibition at 10 µM: read-out: % Inhibition at 10 uM Casp4; for inhibition at 100 µM: read-out: % Inhibition at 100 uM Casp4; for IC50: read-out: IC50 Casp4
T2 construct: mixing the compounds with the respective active caspases; purchased BioVision K154-100
T2 sequence (P49662 81-270 limits assumed): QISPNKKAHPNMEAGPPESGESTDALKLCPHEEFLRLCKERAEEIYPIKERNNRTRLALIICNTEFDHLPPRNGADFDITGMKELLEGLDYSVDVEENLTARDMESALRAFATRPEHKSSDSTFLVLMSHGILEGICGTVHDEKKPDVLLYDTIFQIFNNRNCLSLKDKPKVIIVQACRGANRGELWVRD
T2 sequence (P49662 290-377 limits assumed): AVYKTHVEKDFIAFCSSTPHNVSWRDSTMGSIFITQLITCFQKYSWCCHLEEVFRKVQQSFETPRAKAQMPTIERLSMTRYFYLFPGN
How it was run: as §1

Caspase-5 = molecular target: T3, Caspase-5 (Homo sapiens, UniProt P51878); experiment: Caspase-5 inhibitor screening assay (BioVision kit, WEHD-AFC); settings: for inhibition at 10 µM: read-out: % Inhibition at 10 uM Casp5; for inhibition at 100 µM: read-out: % Inhibition at 100 uM Casp5; for IC50: read-out: IC50 Casp5
T3 construct: mixing the compounds with the respective active caspases; purchased BioVision K155-100
T3 sequence (P51878 137-327 limits assumed): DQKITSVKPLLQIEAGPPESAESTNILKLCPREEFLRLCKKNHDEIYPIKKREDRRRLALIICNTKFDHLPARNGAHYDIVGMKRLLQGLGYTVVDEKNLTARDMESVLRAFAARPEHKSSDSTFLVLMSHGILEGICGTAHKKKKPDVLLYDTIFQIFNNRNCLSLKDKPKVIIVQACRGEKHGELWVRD
T3 sequence (P51878 347-434 limits assumed): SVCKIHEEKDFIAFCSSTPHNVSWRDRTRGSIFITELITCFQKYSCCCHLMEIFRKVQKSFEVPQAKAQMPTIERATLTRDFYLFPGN
How it was run: as §1

Caspase-6 = molecular target: T4, Caspase-6 (Homo sapiens, UniProt P55212); experiment: Caspase-6 inhibitor screening assay (BioVision kit, VEID-AFC); settings: for inhibition at 10 µM: read-out: % Inhibition at 10 uM Casp6; for inhibition at 100 µM: read-out: % Inhibition at 100 uM Casp6; for IC50: read-out: IC50 Casp6
T4 construct: mixing the compounds with the respective active caspases; purchased BioVision K156-100
T4 sequence (P55212 24-179 limits assumed): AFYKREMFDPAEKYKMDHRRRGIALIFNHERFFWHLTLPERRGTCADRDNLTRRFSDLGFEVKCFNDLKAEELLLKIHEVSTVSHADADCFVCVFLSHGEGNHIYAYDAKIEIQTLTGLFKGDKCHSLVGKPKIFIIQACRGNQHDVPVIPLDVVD
T4 sequence (P55212 194-293 limits assumed): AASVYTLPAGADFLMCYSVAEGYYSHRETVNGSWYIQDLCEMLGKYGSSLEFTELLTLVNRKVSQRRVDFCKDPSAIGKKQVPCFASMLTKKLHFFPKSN
How it was run: as §1

Caspase-7 = molecular target: T5, Caspase-7 (Homo sapiens, UniProt P55210); experiment: Caspase-7 inhibitor screening assay (BioVision kit, DEVD-AFC); settings: for inhibition at 10 µM: read-out: % Inhibition at 10 uM Casp7; for inhibition at 100 µM: read-out: % Inhibition at 100 uM Casp7
T5 construct: mixing the compounds with the respective active caspases; purchased BioVision K157-100
T5 sequence (P55210 24-198 limits assumed): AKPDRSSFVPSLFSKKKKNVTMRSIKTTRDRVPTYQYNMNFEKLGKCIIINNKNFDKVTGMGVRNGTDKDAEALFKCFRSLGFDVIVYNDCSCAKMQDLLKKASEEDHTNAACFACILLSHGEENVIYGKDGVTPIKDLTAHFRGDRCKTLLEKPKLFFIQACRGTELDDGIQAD
T5 sequence (P55210 207-303 limits assumed): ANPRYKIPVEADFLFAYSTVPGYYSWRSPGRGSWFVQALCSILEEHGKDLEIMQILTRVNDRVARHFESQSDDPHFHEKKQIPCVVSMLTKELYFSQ
How it was run: as §1

Caspase-9 = molecular target: T6, Caspase-9 (Homo sapiens, UniProt P55211); experiment: Caspase-9 inhibitor screening assay (BioVision kit, LEHD-AFC); settings: for inhibition at 10 µM: read-out: % Inhibition at 10 uM Casp9; for inhibition at 100 µM: read-out: % Inhibition at 100 uM Casp9
T6 construct: purchased BioVision K159-100
T6 sequence (P55211 1-315 limits assumed): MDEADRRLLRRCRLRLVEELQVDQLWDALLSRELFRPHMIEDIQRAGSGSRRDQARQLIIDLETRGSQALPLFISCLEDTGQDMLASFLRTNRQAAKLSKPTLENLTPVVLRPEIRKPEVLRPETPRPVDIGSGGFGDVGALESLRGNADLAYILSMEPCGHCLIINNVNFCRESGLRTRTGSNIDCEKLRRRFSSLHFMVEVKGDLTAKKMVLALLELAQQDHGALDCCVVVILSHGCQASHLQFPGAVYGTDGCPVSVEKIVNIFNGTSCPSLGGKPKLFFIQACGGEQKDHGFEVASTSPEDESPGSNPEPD
T6 sequence (P55211 331-416 limits assumed): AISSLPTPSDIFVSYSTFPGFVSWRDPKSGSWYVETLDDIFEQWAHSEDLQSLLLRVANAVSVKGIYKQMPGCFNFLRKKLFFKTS
How it was run: as §1

[1] = read-out: potency (IC50) against caspase-3
[2] = read-out: potency (IC50) against caspase-7
[3] = read-out: potency (IC50) against caspase-9

| SMILES | inhibition at 10 µM (Caspase-3) | inhibition at 100 µM (Caspase-3) | IC50 (Caspase-3; read-out: IC50 Casp3) | IC50 (Caspase-3; [1]) | inhibition at 10 µM (Caspase-4) | inhibition at 100 µM (Caspase-4) | IC50 (Caspase-4) | inhibition at 10 µM (Caspase-5) | inhibition at 100 µM (Caspase-5) | IC50 (Caspase-5) | inhibition at 10 µM (Caspase-6) | inhibition at 100 µM (Caspase-6) | IC50 (Caspase-6) | inhibition at 10 µM (Caspase-7) | inhibition at 100 µM (Caspase-7) | IC50 (Caspase-7; read-out: IC50 Casp7) | IC50 (Caspase-7; [2]) | inhibition at 10 µM (Caspase-9) | inhibition at 100 µM (Caspase-9) | IC50 (Caspase-9; read-out: IC50 Casp9) | further results |
| --- | --- | --- | --- | --- | --- | --- | --- | --- | --- | --- | --- | --- | --- | --- | --- | --- | --- | --- | --- | --- | --- |
| CC(C)(C)[C@H](NC(=O)[C@H](CC(=O)O)NC(=O)OCc1ccccc1)C(=O)N1CCCC1C(=O)N[C@H](/C=C/S(C)(=O)=O)CC(=O)O (stereo in doubt) [Compound 26, Z-Asp-t-Leu-Pro-Asp-methyl vinyl sulfone] | 98% | 100% | 120 nM | 123 nM | 88% | 100% | 3270 nM | 50% | 91% | 9880 nM | 0% | 7% | > 100000 nM | 99% | 100% | 380 nM | 378 nM | 95% | 100% | 660 nM | IC50 (Caspase-9; [3]): 662 nM |
| CCOC(=O)/C=C/[C@H](CC(=O)O)NC(=O)[C@@H](NC(=O)[C@@H](NC(=O)[C@H](CC(=O)O)NC(=O)OCc1ccccc1)c1ccccc1)C(C)C [Compound 105, Z-Asp-Phg-Val-Asp Ethyl Vinyl Ester] | 99% | 100% | 30 nM | 27 nM | 100% | 98% | 510 nM | 41% | 41% | – | 13% | 10% | – | 99% | 99% | 150 nM | 145 nM | 92% | 92% | 1000 nM | IC50 (Caspase-9; [3]): 994 nM |
| CCC(C)[C@H](NC(=O)[C@H](CCC(=O)O)NC(=O)[C@@H](NC(=O)OCc1ccccc1)C(C)C)C(=O)N[C@H](/C=C/S(C)(=O)=O)CC(=O)O (stereo partly drawn) [Compound 38, Z-Val-Glu-Ile-Asp-methyl vinyl sulfone] | 63% | 89% | 6960 nM | – | 100% | 100% | 375 nM | 32% | 81% | 19600 nM | 88% | 96% | 600 nM | 0% | 31% | – | – | 82% | 97% | 790 nM | – |
| CC(C)[C@H](NC(=O)[C@@H](N)Cc1ccc(O)cc1)C(=O)N[C@@H](C)C(=O)N[C@H](/C=C/S(C)(=O)=O)CC(=O)O [Compound 42, Tyr-Val-Ala-Asp methyl vinyl sulfone] | 0% | 0% | > 100000 nM | – | 28% | 100% | 17100 nM | 43% | 93% | 12400 nM | 6% | 4% | > 100000 nM | 0% | 0% | > 100000 nM | – | 0% | 26% | > 100000 nM | – |
